One block for each molecule: values may come before it.
How the values were obtained:
[1] = Solubility of the compound in common solvents; details: for Solubility in alkanes and toluene: at room temperature
Description: Measurement Conditions: • Sample weight: 26.00 mg • Atmosphere: Nitrogen, 1 atmospheric pressure • Heating rate: 10° C.·min^−1 • Solubility of the compound in common solvents
Measurement Conditions: • Sample weight: 24.57 mg • Atmosphere: Nitrogen, 1 atmospheric pressure • Heating rate: 10° C.·min^−1 • Solubility of the compound in common solvents
Measurement Conditions: • Sample weight: 21.19 mg • Atmosphere: Nitrogen, 1 atmospheric pressure • Heating rate: 10° C.·min^−1 • Solubility of the compound in common solvents
Measurement Conditions: • Sample weight: 23.09 mg • Atmosphere: Nitrogen, 1 atmospheric pressure • Heating rate: 10° C.·min^−1 • Solubility of the compound in common solvents
Measurement Conditions: • Sample weight: 19.79 mg • Atmosphere: Nitrogen, 1 atmospheric pressure • Heating rate: 10° C.·min^−1 • Solubility of the compound in common solvents
Measurement Conditions: • Sample weight: 27.43 mg • Atmosphere: Nitrogen, 1 atmospheric pressure • Heating rate: 10° C.·min^−1 • Solubility of the compound in common solvents

[2] = Vapor pressure
[3] = Thermal Stability Test (storage at 50° C.); format: physicochemical
Description: The product was stored at 50° C. for 14 and 44 days. The W(OsBu)6 content after 14 days was 1.1 atomic %. The W(OsBu)6 content after 44 days was 1.2 atomic %.

Molecule: CC(C)C(C)[O][W](=[O])([O]C(C)C(C)C)([O]C(C)C(C)C)[O]C(C)C(C)C (stereo not shown) [W(═O)(OCH(CH3)(CH(CH3)2))4]
Solubility in common organic solvents ([1]; hexane, acetone, chloroform, and/or toluene): miscible | Vapor pressure ([2]; at 147° C.): 1 Torr

Molecule: CC(C)C[O][W](=[O])([O]CC(C)C)([O]CC(C)C)[O]CC(C)C [W(═O)(OiBu)4, W(═O)(OCH2CH(CH3)2)4]
Solubility in alkanes and in toluene ([1]; toluene up to 80° C.): very low solubility

Molecule: CC(C)[O][W](=[O])([O]C(C)C)([O]C(C)C)[O]C(C)C [W(═O)(OiPr)4, W(═O)(OCH(CH3)2)4]
Solubility in alkanes ([1]; alkanes): very low solubility | Solubility in toluene ([1]; toluene at 60° C.): soluble | Vapor pressure ([2]; at 103° C.): 1 Torr

Molecule: tungsten oxo sec-butoxide [W(═O)(OsBu)4]
W(OsBu)6 content after storage ([3]; stored at 50° C. for 14 days): 1.1 atomic % | W(OsBu)6 content after storage ([3]; stored at 50° C. for 44 days): 1.2 atomic %

Second part, the molecule after the results:

Solubility in alkanes and toluene [1]: very low solubility
Molecule: CCCC[O][W](=[O])([O]CCCC)([O]CCCC)[O]CCCC [W(═O)(OnBu)4]

Solubility in alkanes and toluene [1]: very low solubility
Molecule: CCC[O][W](=[O])([O]CCC)([O]CCC)[O]CCC [W(═O)(OnPr)4]
